The values that follow come from patent US9999619B2, “Piperidin-4-yl azetidine derivatives as JAK1 inhibitors” (Incyte Corporation, priority 2010, dated 2018).

Holding throughout (assay type): biochemical
The target in assay [1] is human JAK1 (a.a. 837-1142) (Homo sapiens, UniProt P23458). The assay is described as follows: In vitro JAK kinase assay (HTRF, phosphorylation of a biotinylated peptide), JAK1. Particulars: measured at 1 mM ATP. The procedure, abridged:
(§1)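 N-terminal His-tagged catalytic domains, baculovirus-expressed in insect cells, phosphorylated a biotinylated peptide for 1 hr at room temperature. EDTA stop was followed by SA-APC and Eu-Py20 antibody for 40 minutes, with phosphopeptide read by HTRF.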
For orientation: In TR-FRET formats the signal depends on donor and acceptor labels being close together.

In assay [2] the target is human JAK1 (a.a. 837-1142). Described as above. Particulars: ratio of JAK2 IC50 to JAK1 IC50, measured at 1 mM ATP. The procedure, abridged: as §1
The target in assay [3] is Jak2 (a.a. 828-1132) (Homo sapiens (Human), UniProt O60674). The assay is described as follows: In vitro JAK kinase assay (HTRF, phosphorylation of a biotinylated peptide), JAK2. Particulars: measured at 1 mM ATP. The essentials: as §1
Jak2 (a.a. 828-1132), sequence (O60674 828-1132): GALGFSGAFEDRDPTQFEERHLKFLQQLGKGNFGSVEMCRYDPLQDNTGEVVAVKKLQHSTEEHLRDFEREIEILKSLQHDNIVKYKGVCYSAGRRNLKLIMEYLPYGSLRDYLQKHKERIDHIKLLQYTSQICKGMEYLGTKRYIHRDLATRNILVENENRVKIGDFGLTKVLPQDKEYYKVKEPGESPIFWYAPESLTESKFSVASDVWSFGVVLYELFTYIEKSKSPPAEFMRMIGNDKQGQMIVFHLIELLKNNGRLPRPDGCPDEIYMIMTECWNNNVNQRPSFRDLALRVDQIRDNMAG

Some results are limits rather than exact numbers.

On to `COc1cc(C(=O)N2CCC(N3CC(CC#N)(n4cc(-c5ncnc6[nH]ccc56)cn4)C3)CC2)cc(Cl)n1` [Example 37, {1-[1-(2-chloro-6-methoxyisonicotinoyl)piperidin-4-yl]-3-[4-(7H-pyrrolo[2,3-d]pyrimidin-4-yl)-1H-pyrazol-1-yl]azetidin-3-yl}acetonitrile], for which the IC50 is at most 5 nM in assay [1] and at most 10 nM in assay [3]. For the same compound, in assay [2], the “IC50 Ratio JAK2/JAK1” value is 2.1.
Taken in the same sequence, the figures for `COc1ccc(F)cc1C(=O)N1CCC(N2CC(CC#N)(n3cc(-c4ncnc5[nH]ccc45)cn3)C2)CC1` [Example 38, {1-[1-(5-fluoro-2-methoxybenzoyl)piperidin-4-yl]-3-[4-(7H-pyrrolo[2,3-d]pyrimidin-4-yl)-1H-pyrazol-1-yl]azetidin-3-yl}acetonitrile] were at most 5 nM, at most 10 nM and 5.7.
Taken in the same sequence, the figures for `COc1cccc(F)c1C(=O)N1CCC(N2CC(CC#N)(n3cc(-c4ncnc5[nH]ccc45)cn3)C2)CC1` [Example 39, {1-[1-(2-fluoro-6-methoxybenzoyl)piperidin-4-yl]-3-[4-(7H-pyrrolo[2,3-d]pyrimidin-4-yl)-1H-pyrazol-1-yl]azetidin-3-yl}acetonitrile] were at most 5 nM, at most 10 nM and 3.2.
Taken in the same sequence, the figures for `COc1cc(F)ccc1C(=O)N1CCC(N2CC(CC#N)(n3cc(-c4ncnc5[nH]ccc45)cn3)C2)CC1` [Example 40, {1-[1-(4-fluoro-2-methoxybenzoyl)piperidin-4-yl]-3-[4-(7H-pyrrolo[2,3-d]pyrimidin-4-yl)-1H-pyrazol-1-yl]azetidin-3-yl}acetonitrile] were at most 5 nM, at most 10 nM and 4.8.
`N#CCC1(n2cc(-c3ncnc4[nH]ccc34)cn2)CN(C2CCN(C(=O)c3cccc(F)c3F)CC2)C1` [Example 41, {1-[1-(2,3-difluorobenzoyl)piperidin-4-yl]-3-[4-(7H-pyrrolo[2,3-d]pyrimidin-4-yl)-1H-pyrazol-1-yl]azetidin-3-yl}acetonitrile]: the IC50 was at most 5 nM in assay [1] and at most 10 nM in assay [3]. Further, the “IC50 Ratio JAK2/JAK1” value in assay [2] came out at 4.9.
For `N#CCC1(n2cc(-c3ncnc4[nH]ccc34)cn2)CN(C2CCN(C(=O)c3ccc(F)cc3F)CC2)C1` [Example 42, {1-[1-(2,4-difluorobenzoyl)piperidin-4-yl]-3-[4-(7H-pyrrolo[2,3-d]pyrimidin-4-yl)-1H-pyrazol-1-yl]azetidin-3-yl}acetonitrile], in that order: at most 5 nM, at most 10 nM and 6.7.
For `N#CCC1(n2cc(-c3ncnc4[nH]ccc34)cn2)CN(C2CCN(C(=O)c3cc(F)ccc3F)CC2)C1` [Example 43, {1-[1-(2,5-difluorobenzoyl)piperidin-4-yl]-3-[4-(7H-pyrrolo[2,3-d]pyrimidin-4-yl)-1H-pyrazol-1-yl]azetidin-3-yl}acetonitrile], the values for the IC50 in assay [1] and in assay [3] were at most 5 nM and 10 to 50 nM, respectively. Also, in assay [2], the “IC50 Ratio JAK2/JAK1” value is on record as 5.0.
For `N#CCC1(n2cc(-c3ncnc4[nH]ccc34)cn2)CN(C2CCN(C(=O)c3c(F)cccc3F)CC2)C1` [Example 44, {1-[1-(2,6-difluorobenzoyl)piperidin-4-yl]-3-[4-(7H-pyrrolo[2,3-d]pyrimidin-4-yl)-1H-pyrazol-1-yl]azetidin-3-yl}acetonitrile], in that order: at most 5 nM, at most 10 nM and 2.9.
Taken in the same sequence, the figures for `N#CCC1(n2cc(-c3ncnc4[nH]ccc34)cn2)CN(C2CCN(C(=O)c3c(F)cccc3C(F)(F)F)CC2)C1` [Example 45, {1-{1-[2-fluoro-6-(trifluoromethyl)benzoyl]piperidin-4-yl}-3-[4-(7H-pyrrolo[2,3-d]pyrimidin-4-yl)-1H-pyrazol-1-yl]azetidin-3-yl}acetonitrile] were at most 5 nM, 10 to 50 nM and 3.1.
Taken in the same sequence, the figures for `N#CCC1(n2cc(-c3ncnc4[nH]ccc34)cn2)CN(C2CCN(C(=O)c3ccc(F)c(F)c3F)CC2)C1` [Example 46, {3-[4-(7H-pyrrolo[2,3-d]pyrimidin-4-yl)-1H-pyrazol-1-yl]-1-[1-(2,3,4-trifluorobenzoyl)piperidin-4-yl]azetidin-3-yl}acetonitrile] were at most 5 nM, 10 to 50 nM and 6.3.
`N#CCC1(n2cc(-c3ncnc4[nH]ccc34)cn2)CN(C2CCN(C(=O)c3c(F)ccc(F)c3F)CC2)C1` [Example 47, {3-[4-(7H-pyrrolo[2,3-d]pyrimidin-4-yl)-1H-pyrazol-1-yl]-1-[1-(2,3,6-trifluorobenzoyl)piperidin-4-yl]azetidin-3-yl}acetonitrile]: the IC50 is at most 5 nM in assay [1] and at most 10 nM in assay [3]. Also, in assay [2], the “IC50 Ratio JAK2/JAK1” value is 3.7.
As to `N#CCC1(n2cc(-c3ncnc4[nH]ccc34)cn2)CN(C2CCN(C(=O)c3cc(F)c(F)cc3F)CC2)C1` [Example 48, {3-[4-(7H-pyrrolo[2,3-d]pyrimidin-4-yl)-1H-pyrazol-1-yl]-1-[1-(2,4,5-trifluorobenzoyl)piperidin-4-yl]azetidin-3-yl}acetonitrile], the IC50 in assay [1] was at most 5 nM; in assay [3], 10 to 50 nM. Further, in assay [2], the “IC50 Ratio JAK2/JAK1” value is 6.5.
For `N#CCC1(n2cc(-c3ncnc4[nH]ccc34)cn2)CN(C2CCN(C(=O)c3c(F)cc(F)cc3F)CC2)C1` [Example 49, {3-[4-(7H-pyrrolo[2,3-d]pyrimidin-4-yl)-1H-pyrazol-1-yl]-1-[1-(2,4,6-trifluorobenzoyl)piperidin-4-yl]azetidin-3-yl}acetonitrile], in that order: at most 5 nM, at most 10 nM and 6.5.
For `COc1c(Br)cc(C(=O)N2CCC(N3CC(CC#N)(n4cc(-c5ncnc6[nH]ccc56)cn4)C3)CC2)cc1Br` [Example 50, {1-[1-(3,5-dibromo-4-methoxybenzoyl)piperidin-4-yl]-3-[4-(7H-pyrrolo[2,3-d]pyrimidin-4-yl)-1H-pyrazol-1-yl]azetidin-3-yl}acetonitrile], in that order: at most 5 nM, at most 10 nM and 6.9.
As to `CN(C)c1ccc(C(=O)N2CCC(N3CC(CC#N)(n4cc(-c5ncnc6[nH]ccc56)cn4)C3)CC2)c(F)c1C#N` [Example 51, 3-[(4-{3-(cyanomethyl)-3-[4-(7H-pyrrolo[2,3-d]pyrimidin-4-yl)-1H-pyrazol-1-yl]azetidin-1-yl}piperidin-1yl)carbonyl]-6-(dimethylamino)-2-fluorobenzonitrile], the half-inhibitory concentration (IC50) in assay [1] was at most 5 nM; in assay [3], at most 10 nM. Also, the “IC50 Ratio JAK2/JAK1” value in assay [2] stood at 6.3.
For the compound `N#CCC1(n2cc(-c3ncnc4[nH]ccc34)cn2)CN(C2CCN(C(=O)c3ccc(C(F)(F)F)c(F)c3)CC2)C1` [Example 52, {1-{1-[3-fluoro-4-(trifluoromethyl)benzoyl]piperidin-4-yl}-3-[4-(7H-pyrrolo[2,3-d]pyrimidin-4-yl)-1H-pyrazol-1-yl]azetidin-3-yl}acetonitrile], the IC50 in assay [1] is 5 to 20 nM; in assay [3] it was 50 to 100 nM. In addition, the “IC50 Ratio JAK2/JAK1” value in assay [2] amounted to 4.4.
In the case of `N#CCC1(n2cc(-c3ncnc4[nH]ccc34)cn2)CN(C2CCN(C(=O)c3cc(Cl)cc(C(F)(F)F)n3)CC2)C1` [Example 53, {1-(1-{[4-chloro-6-(trifluoromethyl)pyridin-2-yl]carbonyl}piperidin-4-yl)-3-[4-(7H-pyrrolo[2,3-d]pyrimidin-4-yl)-1H-pyrazol-1-yl]azetidin-3-yl}acetonitrile], the IC50 in assay [1] is at most 5 nM; in assay [3], 10 to 50 nM. Besides, the “IC50 Ratio JAK2/JAK1” value in assay [2] is 9.4.
Take `N#CCC1(n2cc(-c3ncnc4[nH]ccc34)cn2)CN(C2CCN(C(=O)c3cc(F)c(F)c(F)c3F)CC2)C1` [Example 54, {3-[4-(7H-pyrrolo[2,3-d]pyrimidin-4-yl)-1H-pyrazol-1-yl]-1-[1-(2,3,4,5-tetrafluorobenzoyl)piperidin-4-yl]azetidin-3-yl}acetonitrile]: the values for the IC50 in assay [1] and in assay [3] were 5 to 20 nM and 50 to 100 nM, respectively. Besides, the “IC50 Ratio JAK2/JAK1” value in assay [2] was found to be 9.1.
Taken in the same sequence, the figures for `COc1ccc(C(=O)N2CCC(N3CC(CC#N)(n4cc(-c5ncnc6[nH]ccc56)cn4)C3)CC2)cc1C#N` [Example 55, 5-[(4-{3-(cyanomethyl)-3-[4-(7H-pyrrolo[2,3-d]pyrimidin-4-yl)-1H-pyrazol-1-yl]azetidin-1-yl}piperidin-1-yl)carbonyl]-2-methoxybenzonitrile] were at most 5 nM, 10 to 50 nM and 7.5.
On to `N#CCC1(n2cc(-c3ncnc4[nH]ccc34)cn2)CN(C2CCN(C(=O)c3c(F)c(F)cc(F)c3F)CC2)C1` [Example 56, {3-[4-(7H-pyrrolo[2,3-d]pyrimidin-4-yl)-1H-pyrazol-1-yl]-1-[1-(2,3,5,6-tetrafluorobenzoyl)piperidin-4-yl]azetidin-3-yl}acetonitrile], for which the half-maximal inhibitory concentration (IC50) is at most 5 nM in assay [1] and at most 10 nM in assay [3]. The “IC50 Ratio JAK2/JAK1” value in assay [2] is recorded as 8.8.
`N#CCC1(n2cc(-c3ncnc4[nH]ccc34)cn2)CN(C2CCN(C(=O)c3ccnc(C(F)(F)F)c3)CC2)C1` [Example 57, (3-[4-(7H-pyrrolo[2,3-d]pyrimidin-4-yl)-1H-pyrazol-1-yl]-1-{1-[2-(trifluoromethyl)isonicotinoyl]piperidin-4-yl}azetidin-3-yl)acetonitrile]: the IC50 in assay [1] was above 30 nM; in assay [3], above 100 nM. Moreover, in assay [2], the “IC50 Ratio JAK2/JAK1” value was found to be 3.3.

What is called IC50 is the concentration needed to halve the response being measured. A higher IC50 goes with weaker potency.
